{"source": "patent US10421944B2", "about": "“Method for producing neural stem cells using synthetic peptide” (TOAGOSEI CO. LTD., priority 2015, dated 2019)", "test_system": "CCD1079SK cells (fibroblasts from human skin tissue)", "assay": "Test to evaluate neural stem cell-inducing activity (fluorescent immunostaining of nestin and GFAP in fibroblasts)", "assay_type": "cell-based", "details": "peptide 10 μM, 18 days of culture at 30° C., compared with peptide-free group", "description": "Neural stem cells were induced (prepared) from fibroblasts using the neural stem cell-inducing synthetic peptide (Sample 1) obtained in Example 1 above. The test cells were CCD1079SK cells (ATCC™ CRL-2097), a cultured cell line of fibroblasts from human skin tissue. The test details were as follows.\nPreviously frozen CCD1079SK cells were seeded to a cell density of 1.2×10^5/well in a cell culture chamber (also called a slide chamber). The cell culture chamber had one well per slide (culture area 19 mm×44 mm). Specifically, the thawed CCD1079SK cells were suspended in ordinary Dulbecco's modified Eagle's medium (DMEM) to prepare a cell suspension with a cell density of 1.2×10^5/mL, and 1 mL of this cell suspension was seeded in the aforementioned cell culture chamber. The DMEM medium was ordinary DMEM (Wako Pure Chemical Industries, Ltd., Cat. No. 043-30085) with 10% FBS, 100 units/mL penicillin and 100 μg/mL streptomycin added thereto. The CCD1079SK cells seeded in the cell culture chamber were pre-cultured for several hours (about six hours) until the cells adhered to the bottom of the culture container in the incubator under conditions of 5% CO2, 37° C. […]", "data": [{"sequence": "LLLLLLVGLTAPAGKKRTLRKNDRKKR [Sample 1]", "values": [{"measurement": "expression of neural stem cell marker protein nestin (cells with increased quantities of nestin protein)", "setting": "confocal laser microscopy (FIG. 1 vs FIG. 3)", "result": "more cells with increased quantities of nestin protein"}, {"measurement": "expression of neural stem cell marker protein GFAP (cells with increased quantities of GFAP)", "setting": "confocal laser microscopy (FIG. 2 vs FIG. 4)", "result": "more cells with increased quantities of nestin protein and GFAP"}]}]}
